Measured values as given in the NIST ThermoML archive (doi:10.1021/je8002699).
Where “and” joins values, the source holds several entries; their conditions need not be identical. Identical values can stand only once.

Key:
[1] = for viscosity / mass density / speed of sound: Liquid
[2] = refractive index (Na D-line) (dimensionless); conditions: 101.33 kPa, Liquid
[3] = xn = mol fraction of the nth substance listed; conditions: x2 = 0; for mass density / speed of sound / viscosity: 101 kPa, Liquid
[4] = refractive index (Na D-line) (dimensionless); xn = mol fraction of the nth substance listed; conditions: 101 kPa, Liquid, x2 = 0

Cc1ccccc1 [toluene]
[1], 298.15 K, 101.33 kPa
Conditions | mass density [kg/m3] | viscosity [mPa·s]
Capillary tube (Ostwald / Ubbelohde) method | – | 0.555
Pycnometric method | 862.4 | –

CCc1ccccc1 [ethylbenzene]
Conditions | refractive index, 303.15 K | refractive index, 313.15 K | refractive index, 323.15 K | surface tension liquid-gas, 303.15 K [mN/m] | surface tension liquid-gas, 313.15 K [mN/m] | surface tension liquid-gas, 323.15 K [mN/m]
[1] | – | – | – | 30.01 | 29.04 | 28.12
[2] | 1.4985 | 1.4901 | 1.4821 | – | – | –

[1], 101 kPa
Conditions | mass density [kg/m3] | speed of sound [m/s] | viscosity [mPa·s]
303.15 K | 867 | 1335 | 0.577
313.15 K | 842 | 1289 | 0.5914
323.15 K | 832.1 | 1204 | 0.4841

O=[N+]([O-])c1ccccc1 [nitrobenzene] + CC(=O)CC(C)(C)O
Conditions | mass density, [3] [kg/m3] | refractive index, [4] | speed of sound, [3] [m/s] | surface tension liquid-gas, [3] [mN/m] | viscosity, [3] [mPa·s]
303.15 K | 1200 | 1.5504 | 1413 | 40.9 | 1.617
313.15 K | 1196 | 1.5476 | 1318 | 38.24 | 1.465
323.15 K | 1185 | 1.5435 | 1221 | 36.47 | 1.343

CCc1ccccc1 [ethylbenzene] + CC(=O)CC(C)(C)O
Conditions | mass density, [3] [kg/m3] | refractive index, [4] | speed of sound, [3] [m/s] | surface tension liquid-gas, [3] [mN/m] | viscosity, [3] [mPa·s]
303.15 K | 867 | 1.4985 | 1335 | 30.01 | 0.577
313.15 K | 842 | 1.4901 | 1289 | 29.04 | 0.5914
323.15 K | 832.1 | 1.4821 | 1204 | 28.12 | 0.4841

CC(=O)CC(C)(C)O [4-hydroxy-4-methylpentan-2-one]
[1], 101 kPa
Conditions | mass density [kg/m3] | speed of sound [m/s] | viscosity [mPa·s]
293.15 K | 938 | – | 2.89
303.15 K | 936 | 1256 | 2.89
313.15 K | 912 | 1183 | 2.791
323.15 K | 901 | 1121 | 2.67

Conditions | refractive index, 303.15 K | refractive index, 313.15 K | refractive index, 323.15 K | surface tension liquid-gas, 303.15 K [mN/m] | surface tension liquid-gas, 313.15 K [mN/m] | surface tension liquid-gas, 323.15 K
[1] | – | – | – | 29.44 | 28.92 | 28.12 mN/m and 27.12 mN/m
[2] | 1.4239 | 1.4198 | 1.4151 | – | – | –

O=[N+]([O-])c1ccccc1 [nitrobenzene]
Conditions | refractive index, 303.15 K | refractive index, 313.15 K | refractive index, 323.15 K | surface tension liquid-gas, 303.15 K [mN/m] | surface tension liquid-gas, 313.15 K [mN/m] | surface tension liquid-gas, 323.15 K [mN/m]
[1] | – | – | – | 40.9 | 38.24 | 36.47
[2] | 1.5504 | 1.5476 | 1.5435 | – | – | –

[1], 101 kPa
Conditions | mass density [kg/m3] | speed of sound [m/s] | viscosity [mPa·s]
303.15 K | 1200 | 1413 | 1.617
313.15 K | 1196 | 1318 | 1.465
323.15 K | 1185 | 1221 | 1.343
